# Data as given in US8507219B2, “Method of treating inflammation with statins” (MUSC Foundation for Research Development, priority 1997, dated 2013).
# “And” between values parts separate entries of the source, which are not always exact repeats. Identical values can stand only once. “Also recorded” adds a separate entry of the source.
# What was measured:
# [1] = Plasma very-long-chain fatty acids (C26:0) in X-ALD patients on lovastatin; type: in vivo, human
# sterol synthesis = conditions: Sinensky et al., 1991; read-out: IC50 for inhibition of sterol synthesis; cited from earlier work
# [2] = tested on: conversion of pro-p21^ras to mature-p21^ras; conditions: Sinensky et al., 1991; read-out: IC50 for inhibition of conversion of pro-p21^ras to mature-p21^ras; cited from earlier work
# [3] = tested on: TNF-α production in rat resident macrophages; assay: LPS-/IFN-γ-induced TNF-α production (ELISA) in rat macrophages; type: cell-based; conditions: for inhibition at 20000 µM: Rattus norvegicus, Macrophage
# Method: Resident macrophages cultured in serum-free RPMI 1640 medium received 20 mM NAC or 100 μM PDTC 2 h before the addition of stimuli. When stimuli were used separately their concentrations were: LPS, 1.0 μg/ml; IFN-γ, 200 U/ml, and when they were used together, their concentrations were: LPS, 0.2 μg/ml; IFN-γ, 50 U/ml. Supernatants were collected 24 h after the addition of stimuli to measure TNF-α concentration using ELISA as described.
# [4] = tested on: ceramide production in rat primary astrocytes; assay: Degradation of sphingomyelin to ceramide (DAG kinase assay, HPTLC) in rat primary astrocytes; type: cell-based; conditions: 10 mM NAC or 100 μM PDTC 1 h before TNF-α or IL-1β (50 ng/ml), diamide 0.5 mM or aminotriazole 5 mM
# In short: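 About 1.0×10^6 cells were exposed to cytokines with or without antioxidants for various periods, then lipids were extracted. Sphingomyelin was separated by HPTLC and quantified by densitometry. Ceramide was phosphorylated with DAG kinase and [γ-^32P]ATP, and ceramide 1-phosphate was resolved by TLC and quantified by autoradiography/densitometry, expressed as arbitrary absorbance units or percent change.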
# [5] = tested on: intracellular GSH in rat primary astrocytes; assay: Intracellular GSH / GSSG in rat primary astrocytes; type: cell-based; conditions: 10 mM NAC 1 h; TNF-α or IL-1β 50 ng/ml; diamide 0.5 mM
# Method: Measurement of reduced glutathione (GSH) concentration in rat primary astrocytes Concentration of intracellular GSH was measured using a colorimetric assay kit for GSH from RandD, USA. Briefly, 2×10^6 cells were homogenized in 500 μl of ice-cold 5% metaphosphoric acid and centrifuged at 3000 g for 10 min. Supernatants were used to assay GSH using 4-chloro-1-methyl-7-trifluoromethyl-quinolinium methylsulfate and 30% NaOH at 400 nm.
# Measurement of GSH (Reduced Glutathione) and GSSG Oxidized Glutathione Concentration of intracellular reduced GSH was measured using a calorimetric assay kit for GSH from R & D Systems. Briefly, 2×10^6 cells were homogenized in 500 μl of ice-cold 5% metaphosphoric acid and centrifuged at 3000×g for 10 min. Supernatants were used to assay GSH using 4-chloro-1-methyl-7-trifluoromethylquinolinium methylsulfate and 30% NaOH at 400 nm. Concentration of GSSG was determined according to the method of Griffith (1980) after derivatization with 2-vinylpyridine for 30 min at room temperature.
# [6] = tested on: rat primary microglia, oligodendrocytes and C6 glial cells; assay: TNF-α-induced ceramide production in rat primary microglia, oligodendrocytes and C6 glial cells; type: cell-based; conditions: 10 mM NAC 1 h, TNF-α 50 ng/ml
# [7] = in vivo; cited from earlier work
# [8] = individual X-ALD patients, lovastatin 20 then 40 mg per day
smiles,measurement,setting,value
CC[C@H](C)C(=O)O[C@H]1C[C@@H](C)C=C2C=C[C@H](C)[C@H](CC[C@@H]3C[C@@H](O)CC(=O)O3)[C@H]21 [Lovastatin],"plasma levels of very-long-chain fatty acids (C26:0), words",[1]; five patients who continued the treatment,remained low and within the normal range for up to six months
same,Plasma Very-Long-Chain Fatty Acids AT 1 MO,"[1]; individual X-ALD patients (one line each), lovastatin 20 mg per day two weeks, then 40 mg per day, normal controls 0.24 ± 0.13",0.42 micrograms per milliliter and 0.37 micrograms per milliliter and 0.5 micrograms per milliliter and 0.43 micrograms per milliliter and 0.24 micrograms per milliliter and 0.3 micrograms per milliliter and 0.44 micrograms per milliliter
same,Plasma Very-Long-Chain Fatty Acids AT 2 MO,[1]; [8],0.41 micrograms per milliliter (2×) and 0.5 micrograms per milliliter and 0.42 micrograms per milliliter (2×) and 0.21 micrograms per milliliter and 0.34 micrograms per milliliter
same,Plasma Very-Long-Chain Fatty Acids AT 3 MO,[1]; [8],0.56 micrograms per milliliter and 0.3 micrograms per milliliter and 0.43 micrograms per milliliter and 0.21 micrograms per milliliter and 0.32 micrograms per milliliter and 0.36 micrograms per milliliter
same,Plasma Very-Long-Chain Fatty Acids AT 4 MO,[1]; [8],0.35 micrograms per milliliter and 0.34 micrograms per milliliter (2×) and 0.42 micrograms per milliliter and 0.22 micrograms per milliliter and 0.37 micrograms per milliliter
same,Plasma Very-Long-Chain Fatty Acids AT 5 MO,[1]; [8],0.17 micrograms per milliliter and 0.41 micrograms per milliliter (2×) and 0.26 micrograms per milliliter and 0.21 micrograms per milliliter
same,Plasma Very-Long-Chain Fatty Acids AT 6 MO,[1]; [8],0.17 micrograms per milliliter (3×) and 0.16 micrograms per milliliter and 0.21 micrograms per milliliter
same,IC50,sterol synthesis,0.01 µM
same,IC50,[2],2.6 µM
"CC(=O)N[C@@H](CS)C(=O)O [NAC, N-acetyl cysteine]",TNF-α,"[3]; LPS 0.2 μg/ml + IFN-γ 50 U/ml, 20 mM NAC or 100 μM PDTC 2 h before, 24 h",2.3 ± 0.2 ng/24 h/mg protein
same,TNF-α,"[3]; LPS 1.0 μg/ml, 20 mM NAC or 100 μM PDTC 2 h before, 24 h",1.6 ± 0.3 ng/24 h/mg protein
same,inhibition at 20000 µM,"[3]; LPS 0.2 μg/ml + IFN-γ 50 U/ml, 20 mM NAC or 100 μM PDTC 2 h before",93%
same,inhibition at 20000 µM,"[3]; LPS 1.0 μg/ml, 20 mM NAC or 100 μM PDTC 2 h before",92%
same,TNF-α,"[3]; antioxidant alone (20 mM NAC or 100 μM PDTC), no stimulus",0.6 ± 0.2 ng/24 h/mg protein
same,degradation of sphingomyelin to ceramide / ceramide production,[4],potentially blocked the decrease in sphingomyelin as well as the increase in ceramide; also recorded: blocked diamide-mediated decrease in GSH level and induction of ceramide production; also recorded: blocked the ATZ-mediated increase in ceramide production
same,intracellular level of GSH / GSSG,[5],intracellular level of GSH did not decrease when cells were stimulated with cytokines in presence of NAC; also recorded: lack of decrease of GSH
same,TNF-α-induced production of ceramide,[6],"potently blocked the TNF-α-induced production of ceramide in microglia, oligodendrocytes and C6 glial cells; also recorded: potently blocked the TNF-α-induced production of ceramide in microglia, oligodendrocytes, and C6 glial cells"
"O=C([O-])Cc1ccccc1.[Na+] [NaPA, sodium salt of phenylacetic acid]",cytotoxicity at higher doses,X-ALD fibroblasts,cytotoxic to the X-ALD fibroblasts
same,pharmacologically attainable concentration,[7],1 to 5 mM
